Test results: patent publication US20240382471A1, “GLUCAGON-LIKE PEPTIDE-1 RECEPTOR MODULATORS AND USES THEREOF” (HEPAGENE THERAPEUTICS (HK) LIMITED, priority 2021, published 2024)

Target: GLP1R (Homo sapiens, UniProt P43220)
Test: GLP1R cAMP assay (HTRF cAMP detection, agonist activity)
Assay type: cell-based
Set-up: host or cells: Flp-In-293
Conditions: Flp-In-293-GLP1R cells, 30 min at 37° C., read-out: EC50 (nM) Assay 1
Description: GLP1R-mediated agonist activity was determined with a cell-based functional assay utilizing an HTRF (Homogeneous Time-Resolved Fluorescene) cAMP detection kit that measures CAMP levels in the cell. Reagents and equipment used in the assay are listed below, followed by the protocol.
• 1) Cell Line: Flp-In-293-GLP1R (constructed by Pharmaron Beijing Co., Ltd) • 2) Complete Medium: DMEM+10% FBS+1×Penicillin-Streptomycin+200 μg/mL HB • 3) Assay Buffer: 1×HBSS+20 mM HEPES+0.1% BSA+500 μM IBMX
• a) Seed Flpin-293-GLP1R cells at 20,000 cells/well into 384 well assay plate (6007680-50, PE) using complete medium. • b) Prepare 4×compound working solution with assay buffer. • c) Add 5 μL 4×compound working solution into cell plate, incubate 30 min at 37° C. • d) Dilute Eu-cAMP tracer (1/50) with lysis buffer and add 10 μl/well to assay plate. • e) Dilute Ulight-anti-cAMP (1/150) with lysis buffer and add 10 μl/well to assay plate. • f) Incubate 1 h at RT. • g) Read the plate at wavelengths of 665 nm and 615 nm on Envision 2105 plate reader.
• 3.1% Activity is calculated as follow:
% Activity=100−(Signalcmpd−SignalAve_PC)/(SignalAve_VC−SignalAve_PC)×100. • 3.2 Calculate EC50 and Plot effect-dose curve of cmpds:
Y=Bottom+(Top−Bottom)/(1+10^((Log EC50−X)*Hill Slope)) • X: log of agonist concentration; Y: % Activity.

Sequence of GLP1R (P43220 24-463, species assumed): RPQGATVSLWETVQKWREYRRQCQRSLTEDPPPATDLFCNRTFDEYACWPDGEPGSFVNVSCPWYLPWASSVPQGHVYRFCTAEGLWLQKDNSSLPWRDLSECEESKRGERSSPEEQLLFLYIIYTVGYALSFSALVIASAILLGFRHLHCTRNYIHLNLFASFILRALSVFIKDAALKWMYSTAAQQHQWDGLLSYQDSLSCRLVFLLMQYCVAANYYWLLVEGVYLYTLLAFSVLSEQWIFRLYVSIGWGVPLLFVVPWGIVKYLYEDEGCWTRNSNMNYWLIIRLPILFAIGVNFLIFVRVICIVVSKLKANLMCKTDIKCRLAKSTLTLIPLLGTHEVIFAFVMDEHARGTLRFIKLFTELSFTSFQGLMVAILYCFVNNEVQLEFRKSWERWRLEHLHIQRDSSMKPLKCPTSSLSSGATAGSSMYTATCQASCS

Structure (SMILES) | EC50
N#Cc1ccc(COc2ccnc(C34CCN(Cc5nc6ccc(C(=O)O)cc6n5C[C@@H]5CCO5)CC3C4)n2)c(F)c1 (stereo partly drawn) [Compound 1-11, 2-((6-(4-((4-cyano-2-fluorobenzyl)oxy)pyrimidin-2-yl)-3-azabicyclo[4.1.0]heptan-3-yl)methyl)-1-(((S)-oxetan-2-yl)methyl)-1H-benzo[d]imidazole-6-carboxylic acid] | 0.079 nM
N#Cc1ccc(COc2cccc(N3CC4CN(Cc5nc6ccc(C(=O)O)cc6n5CC5CCOC5)CC4C3)n2)c(F)c1 (stereo not shown) [Compound 2-24, 2-[(5-{6-[(4-cyano-2-fluorophenyl)methoxy]pyridin-2-yl}-hexahydropyrrolo[3,4-c]pyrrol-2-yl)methyl]-3-(oxolan-3-ylmethyl)-1,3-benzodiazole-5-carboxylic acid] | 3.05 nM
N#Cc1ccc(COc2cccc(N3CC4CCC(C3)N4Cc3nc4ccc(C(=O)O)cc4n3Cc3ncco3)n2)c(F)c1 [Compound 2-12, 2-((−3-(6-((4-cyano-2-fluorobenzyl)oxy)pyridin-2-yl)-3,8-diazabicyclo[3.2.1]octan-8-yl)methyl)-1-(oxazol-2-ylmethyl)-1H-benzo[d]imidazole-6-carboxylic acid] | > 4 nM
N#Cc1ccc(COc2cccc(N3C4CC3CN(Cc3nc5ccc(C(=O)O)cc5n3C[C@@H]3CCO3)C4)n2)c(F)c1 [Compound 2-2, 2-((6-(6-((4-cyano-2-fluorobenzyl)oxy)pyridin-2-yl)-3,6-diazabicyclo[3.1.1]heptan-3-yl)methyl)-1-(((S)-oxetan-2-yl)methyl)-1H-benzo[d]imidazole-6-carboxylic acid] | > 4 nM
O=C(O)c1ccc2nc(CN3C4CCC3CN(c3cccc(OCc5ccncc5)n3)C4)n(C[C@@H]3CCO3)c2c1 [Compound 2-5, 3-[(2S)-oxetan-2-ylmethyl]-2-({3-[6-(pyridin-4-ylmethoxy)pyridin-2-yl]-3,8-diazabicyclo[3.2.1]octan-8-yl}methyl)-1,3-benzodiazole-5-carboxylic acid] | > 4 nM
O=C(O)c1ccc2nc(CN3CC4CCC(C3)N4c3cccc(OCc4ccncc4F)n3)n(C[C@@H]3CCO3)c2c1 [Compound 2-40, 2-((−8-(6-((3-fluoropyridin-4-yl)methoxy)pyridin-2-yl)-3,8-diazabicyclo[3.2.1]octan-3-yl)methyl)-1-(((S)-oxetan-2-yl)methyl)-1H-benzo[d]imidazole-6-carboxylic acid] | > 4 nM
N#Cc1ccc(COc2cccc(N3CC4CN(Cc5nc6ccc(C(=O)O)cc6n5CC5CCO5)CC4C3)n2)c(F)c1 (stereo not shown) [Compound 2-21, 2-[(5-{6-[(4-cyano-2-fluorophenyl)methoxy]pyridin-2-yl}-hexahydropyrrolo[3,4-c]pyrrol-2-yl)methyl]-3-(oxetan-2-ylmethyl)-1,3-benzodiazole-5-carboxylic acid] | > 4 nM
Cc1ccc(COc2cccc(N3C4CCC3CN(Cc3nc5ccc(C(=O)O)cc5n3C[C@@H]3CCO3)C4)n2)c(F)c1 [Compound 2-37, 2-((−8-(6-((2-fluoro-4-methylbenzyl)oxy)pyridin-2-yl)-3,8-diazabicyclo[3.2.1]octan-3-yl)methyl)-1-(((S)-oxetan-2-yl)methyl)-1H-benzo[d]imidazole-6-carboxylic acid] | 0.929 nM
CS(=O)(=O)c1ccc(COc2cccc(N3CC4CCC(C3)N4Cc3nc4ccc(C(=O)O)cc4n3C[C@@H]3CCO3)n2)cc1 [Compound 2-14, 2-((−3-(6-((4-(methylsulfonyl)benzyl)oxy)pyridin-2-yl)-3,8-diazabicyclo[3.2.1]octan-8-yl)methyl)-1-(((S)-oxetan-2-yl)methyl)-1H-benzo[d]imidazole-6-carboxylic acid] | > 4 nM
CS(=O)(=O)NC(=O)c1ccc2nc(CN3CC4CCC(C3)N4c3cccc(OCc4ccc(C#N)cc4F)n3)n(C[C@@H]3CCO3)c2c1 [Compound 2-42, 2-((−8-(6-((4-cyano-2-fluorobenzyl)oxy)pyridin-2-yl)-3,8-diazabicyclo[3.2.1]octan-3-yl)methyl)-N-(methylsulfonyl)-1-(((S)-oxetan-2-yl)methyl)-1H-benzo[d]imidazole-6-carboxamide] | > 4 nM
N#Cc1ccc(COc2cccc(C34CCN(Cc5nc6ccc(C(=O)O)cc6n5C[C@@H]5CCO5)CC3C4)n2)cc1F (stereo partly drawn) [Compound 1-7, 2-((6-(6-((4-cyano-3-fluorobenzyl)oxy)pyridin-2-yl)-3-azabicyclo[4.1.0]heptan-3-yl)methyl)-1-(((S)-oxetan-2-yl)methyl)-1H-benzo[d]imidazole-6-carboxylic acid] | 0.175 nM
N#Cc1ccc(COc2cccc(N3CC4CN(Cc5nc6ccc(C(=O)O)cc6n5Cc5ncco5)CC4C3)n2)c(F)c1 (stereo not shown) [Compound 2-26, 2-[(5-{6-[(4-cyano-2-fluorophenyl)methoxy]pyridin-2-yl}-hexahydropyrrolo[3,4-c]pyrrol-2-yl)methyl]-3-(1,3-oxazol-2-ylmethyl)-1,3-benzodiazole-5-carboxylic acid] | > 4 nM
N#Cc1ccc(COc2ccnc(C34CCN(Cc5nc6ccc(C(=O)O)cc6n5C[C@@H]5CCO5)CC3C4)n2)c(F)c1 (single isomer, unassigned) [Compound 1-11-A] | 0.995 nM
N#Cc1ccc(COc2ccnc(C34CCN(Cc5nc6ccc(C(=O)O)cc6n5C[C@@H]5CCO5)CC3C4)n2)c(F)c1 (single isomer, unassigned) [Compound 1-11-B] | 0.017 nM

The remaining lines, values ahead:

EC50 | Structure (SMILES)
0.643 nM | O=C(O)c1ccc2nc(CN3C4CCC3CN(c3cccc(OCc5ccc(Cl)cc5F)n3)C4)n(C[C@@H]3CCO3)c2c1 [Compound 2-6, 2-[(3-{6-[(4-chloro-2-fluorophenyl)methoxy]pyridin-2-yl}-3,8-diazabicyclo[3.2.1]octan-8-yl)methyl]-3-[(2S)-oxetan-2-ylmethyl]-1,3-benzodiazole-5-carboxylic acid]
> 4 nM | O=C(O)c1ccc2nc(CN3C4CCC3CN(c3cccc(OCc5ccc(F)cc5F)n3)C4)n(C[C@@H]3CCO3)c2c1 [Compound 2-7, 2-((−3-(6-((2,4-difluorobenzyl)oxy)pyridin-2-yl)-3,8-diazabicyclo[3.2.1]octan-8-yl)methyl)-1-(((S)-oxetan-2-yl)methyl)-1H-benzo[d]imidazole-6-carboxylic acid]
> 4 nM | N#Cc1ccc(COc2cccc(N3CC4CCC(C3)N4Cc3nc4ccc(C(=O)O)cc4n3C[C@@H]3CCCO3)n2)c(F)c1 [Compound 2-10, 2-((−3-(6-((4-cyano-2-fluorobenzyl)oxy)pyridin-2-yl)-3,8-diazabicyclo[3.2.1]octan-8-yl)methyl)-1-(((S)-tetrahydrofuran-2-yl)methyl)-1H-benzo[d]imidazole-6-carboxylic acid]
> 4 nM | N#Cc1ccc(COc2ncccc2N2CC3CCC(C2)N3Cc2nc3ccc(C(=O)O)cc3n2C[C@@H]2CCO2)c(F)c1 [Compound 2-16, 2-[(3-{2-[(4-cyano-2-fluorophenyl)methoxy]pyridin-3-yl}-3,8-diazabicyclo[3.2.1]octan-8-yl)methyl]-3-[(2S)-oxetan-2-ylmethyl]-1,3-benzodiazole-5-carboxylic acid]
> 4 nM | N#Cc1ccc(COc2cccc(N3CC4CCC(C3)N4Cc3nc4ccc(C(=O)O)cc4n3CC3CCO3)n2)c(F)c1 (stereo not shown) [Compound 2-9, 2-((−3-(6-((4-cyano-2-fluorobenzyl)oxy)pyridin-2-yl)-3,8-diazabicyclo[3.2.1]octan-8-yl)methyl)-1-(oxetan-2-ylmethyl)-1H-benzo[d]imidazole-6-carboxylic acid]
> 4 nM | O=C(O)c1ccc2nc(CN3C4CCC3CN(c3cccc(OCc5ccncc5F)n3)C4)n(C[C@@H]3CCO3)c2c1 [Compound 2-13, 2-[(3-{6-[(3-fluoropyridin-4-yl)methoxy]pyridin-2-yl}-3,8-diazabicyclo[3.2.1]octan-8-yl)methyl]-3-[(2S)-oxetan-2-ylmethyl]-1,3-benzodiazole-5-carboxylic acid]
1.22 nM | N#Cc1ccc(COc2cccc(N3CC4CCC(C3)N4Cc3nc4ccc(C(=O)O)cc4n3C[C@@H]3CCO3)n2)c(F)c1 [Compound 2, 2-((−3-(6-((4-cyano-2-fluorobenzyl)oxy)pyridin-2-yl)-3,8-diazabicyclo[3.2.1]octan-8-yl)methyl)-1-(((S)-oxetan-2-yl)methyl)-1H-benzo[d]imidazole-6-carboxylic acid]
3.25 nM | N#Cc1ccc(COc2cccc(N3C4CCC3CN(Cc3nc5ccc(C(=O)O)cc5n3C[C@@H]3CCCO3)C4)n2)c(F)c1 [Compound 2-32, 2-((−8-(6-((4-cyano-2-fluorobenzyl)oxy)pyridin-2-yl)-3,8-diazabicyclo[3.2.1]octan-3-yl)methyl)-1-(((S)-tetrahydrofuran-2-yl)methyl)-1H-benzo[d]imidazole-6-carboxylic acid]
